Reference: EP4420661B1, “SMALL MOLECULES TARGETING GLYCOPROTEIN VI AS ANTIPLATELET AGENTS FOR USE IN THE PREVENTION AND/OR TREATMENT OF THROMBOSIS AND ASSOCIATED PATHOLOGIES” (Universidade de Santiago de Compostela, priority 2023, dated 2024)
Converted amounts (≈) assume the structure as drawn.

Tests used:
human platelets [1] = assay: intracellular Ca+2 mobilization assay, CRP-activated washed platelets (FLIPR Calcium 4); assay type: cell-based; settings: Platelet, calcium mobilization in human platelets, read-out: % Inhibition of CRP effect at 1µM, Mean
Procedure: An intracellular Ca^+2 mobilization assay was used to test the activity of the ligands in platelets. This assay measures the changes in calcium in real time by fluorophore dye Calcium 4, providing a useful way to characterize platelet activation by GPVI signaling [Barrachina et al. (2021)].
Washed platelets (5x10E6) were incubated with FLIPR Calcium 4 reagent (Molecular Devices LLC, San Jose, CA, USA) in a 384-well transparent bottom plate (Greiner Bio-One International GmbH, Kremsmünster, Austria) and supplemented with Probenecid (Invitrogen™, Carlsbad, CA, USA) 0.07% for 1 h at 37 °C. Platelets were co-incubated for 10 min with the tested compounds and inhibitors of secondary mediators (2 U/mL apyrase and 10 microM indomethacin (Sigma-Aldrich, Saint Louis, MO, USA)) under nonaggregating conditions (9 microM eptifibatide (Cayman Chemicals, Ann Arbor, MI, USA)). Then, the GPVI-specific agonist Collagen-Related Peptide (CRP) was added to the platelet suspension at different doses. Both potential GPVI inhibitors and CRP were automatically dispensed by FDSS7000EX Functional Drug Screening System (Hamamatsu Photonics, Hamamatsu, Japan). Intracellular Ca^2+ mobilization was assessed by measuring fluorescence changes ([…] wavelengths) in real time for 15 min after the addition of the agonist. 100% was expressed as maximal Ca^2+ release in platelets treated with the agonist CRP. To determine IC50, compounds were tested at 9 different concentrations in duplicates starting from 10 uM and performing 1:3 serial dilutions. The analysis of the data was performed with GraphPad Prism® software (version 6.0e, March 2014) (GraphPad Software, San Diego, CA, USA) by carrying out a nonlinear regression fit for log(inhibitor) vs. relative CRP activity using a Hill slope of -1, and top and bottom constraints of 100 and 0, respectively.

human platelets [2] = assay: platelet aggregation assay, CRP-induced; assay type: cell-based; settings: Homo sapiens, Platelet, CRP 1 µg/mL
Procedure: Platelet aggregation assays were carried out to assess the potency of the active compounds as previously described [Barrachina et al. (2021)].
Briefly, human platelets from at least =7 healthy individuals were isolated and washed. Then, the suspension was incubated with the compounds at 10 µM at 37 ∘C for 4 min in a Chrono-log® 490-X aggregometer (Chrono-log Corporation, Havertown, PA, USA). After that, platelets were stimulated with the agonist CRP at 1 µg/mL for 5 min.

human platelets [3] = assay: platelet spreading assay on CRP (phalloidin staining, confocal microscopy); assay type: cell-based; settings: 10µM; CRP 1µg/mL; Figure 4
Procedure: Platelet spreading experiments were carried out to assess the potency of the compounds of formula (I), exemplified by compounds (If)and (Ih).
Platelets can change from a rounded, non-adherent form to adhere and flatten shape when exposed to ligands. This "spreading" effect can lead to the formation of cytoskeletal protein rearrangement. Platelet adhesion and extent of spreading (area covered) can be quantified.
Briefly, human platelets from healthy individuals were isolated and washed. Then, platelets were incubated with the inhibitors at 10µM for 5 min at room temperature and then for 45 min at 37°C in coverslips coated with 1µg/mL of agonist (CRP).
The images of platelet shape given by phalloidin staining were acquired by confocal fluorescence microscopy and the area analyzed by ImageJ [Onselaer et al., (2020)].

[4] = plasmatic stability, human plasma; assay type: in vitro ADME; settings: for Plasmatic stability: Human plasma
Procedure: (§1) Rat, human, mouse and dog plasma pooled from healthy donors extracted in citrate tubes was employed in the assay.
(§2) […] Then 300µl Acetonitrile were added for precipitating plasma protein, and the plate was centrifuged at 4000 g for 60 min at 4°C.
(§3) Supernatant was taken and analyzed by UPLC/MS/MS for sample quantification. Stationary phase: Reverse phase ACQUITY BEH C18 1.7µm 2.1x50mm (Waters) Mobile phase: 0.1% Formic acid water/0.1% formic acid in acetonitrile Gradient: Table 4: UPLC gradient / Plasmatic stability assay
(§4) The chromatographic equipment employed was an UPLC QSM Waters Acquity. Compound concentrations were calculated from the MS peak areas.

[5] = plasmatic stability, dog plasma; assay type: in vitro ADME
Procedure: as §1, §2, §3, §4

[6] = metabolic stability, mouse microsomes; assay type: in vitro ADME
Procedure: Microsomes from Tebu-bio Xenotech were employed in the assay, having a content of 20 mg/ml of protein. The following quantities were added to each well of a 96-well microplate.
Plates were incubated at 37°C and 75 µL samples were taken at 0, 10, 20, 40 and 60 minutes.
Samples were transferred to a microplate and 75 µl Acetonitrile + IS(Rolipram) were added for inactivating the microsomes, and 30 µl of H2O with 0.5% formic acid for improving the chromatographic conditions and kept at 4°C. When all the samples were taken the plate was centrifuged at 46000 g for 30 min at 15°C. Stationary phase: ACQUITY BEH C18 1.7µm 2.1x50mm (Waters) Mobile phase: A: 0.1% formic; B: acetonitrile+0.1% formic acid Gradient: Table 6: UPLC gradient / Metabolic stability assay
Metabolic stability was calculated from the logarithm of the remaining compound at each of the times evaluated.

[7] = plasma protein binding, Rapid Equilibrium Dialysis (RED), mouse; assay type: in vitro ADME; settings: 4h at 37°C, (*) low recovery for (If)
Procedure: (§5) Plasma from Seralab was employed in the assay and was carried out by employing Rapid Equilibrium Dialysis (RED) from Thermo Scientific.
(§6) The compounds were dissolved at 5 µM in plasma and added to the corresponding insert of the RED device. Dialysis buffer was added to the corresponding insert of the RED device. Plate was incubated for 4h at 37°C.
(§7) After the incubation period 50 µL aliquots of each chamber were transferred to empty vials. 50 µL of dialysis buffer were added to the plasma samples and 50 µL of plasma were added to the buffer samples. 300 µL of acetonitrile were added to all the samples and centrifuged at 4000 rpm 100 µL aliquots of the supernatants were transferred to a LC analysis plate. Samples were analyzed in a UPLC/MS/MS. Stationary phase: Acquity UPLC® BEHC18 1,7 µm (2.1 mm x 50 mm) (Waters). Gradient: A (H2O + 0.1% Formic acid); B (ACN + 0.1% Formic acid); Flow: 0.6mL/min Table 8: UPLC gradient / Protein binding assay
(§8) The chromatographic equipment employed was an ACQUITY UPLC / Xevo TQD System. Compound concentrations were calculated from the MS peak areas. Table 9: Plasma protein binding of the compounds of formula (I) in rat, mice, dogs and humans / (*) low recovery

Plasma protein [8] = assay: as above; assay type: in vitro ADME; settings: 5 µM, 4h at 37°C, (*) low recovery for (If)
Procedure: as §5, §6, §7, §8

[9] = plasma protein binding, Rapid Equilibrium Dialysis (RED), dog; assay type: in vitro ADME; settings: 4h at 37°C
Procedure: as §5, §6, §7, §8

Plasma protein [10] = assay: as above; assay type: in vitro ADME; settings: 5 µM, 4h at 37°C
Procedure: as §5, §6, §7, §8

[11] = solubility by nephelometry; settings: 1% dmso/pbs, 37 °C, aqueous buffer, kinetic from dmso stock
Procedure: Solubility was determined by nephelometry to assess its potential impact on the bioassays at active concentrations.
Then, said compounds were incubated for 2 hours at 37°C and read in a NEPHELOstar Plus (BMG LABTECH).

O=C(Cc1ccc2c(c1)OCCO2)Nc1nc(-c2ccc3c(c2)CCC(=O)N3)cs1 [Compound (If)]
inhibition at 1 µM (human platelets [1]): 31% | inhibition at 10 µM (human platelets [2]): 70 ± 19% | platelet spreading on CRP (in words) (human platelets [3]): inhibition of platelet spreading on CRP | Plasmatic stability ([4]; 10µM, t 0 min): 100.0 | Plasmatic stability ([4]; 10µM, t 60 min): 101.0 | Plasmatic stability ([4]; 10µM, t 120 min): 101.7 | Plasmatic stability ([4]; 10µM, t 360 min): 101.4 | Plasmatic stability ([4]; 100µM, t 0 min): 100.0 | Plasmatic stability ([4]; 100µM, t 60 min): 104.3 | Plasmatic stability ([4]; 100µM, t 120 min): 107.4 | Plasmatic stability ([4]; 100µM, t 360 min): 106.4 | plasmatic stability (in words) ([4]; human): high plasmatic stability | Plasmatic stability ([5]; 10µM, t 0 min): 100.0 | Plasmatic stability ([5]; 10µM, t 60 min): 89.2 | Plasmatic stability ([5]; 10µM, t 120 min): 85.1 | Plasmatic stability ([5]; 10µM, t 360 min): 83.5 | Plasmatic stability ([5]; 100µM, t 0 min): 100.0 | Plasmatic stability ([5]; 100µM, t 60 min): 101.4 | Plasmatic stability ([5]; 100µM, t 120 min): 106.5 | Plasmatic stability ([5]; 100µM, t 360 min): 102.4 | half-life [6]: 1.82 h | microsomal CLint [6]: 7.09 µL/min/mg | % remanent (*) ([6]; (*) sampling time 60 min): 71.6% | fraction unbound at 4 h, 5 µM [7]: 0.0046 | Unbound fraction (Plasma protein [8]): 0.46% | fraction unbound at 4 h, 5 µM [9]: 0.0015 | Unbound fraction (Plasma protein [10]): 0.15% | solubility at 2 h [11]: 61.5 µM (≈ 25.9 µg/mL)
